Legend:
Palbociclib = compound: CC(=O)c1c(C)c2cnc(Nc3ccc(N4CCNCC4)cn3)nc2n(C2CCCC2)c1=O [Palbociclib]; details: max 10 µM
Method in brief: (§1)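 Cancer cell lines were dosed for 72 hours (final DMSO typically 0.2%) after 24 hours at 37°C and 5% CO2 in 1536-well plates containing 7.5 μl DMEM/F12 or RPMI with 10% FBS. Viability came from CellTiter-Glo 2.0 luminescence, scaled between blank-well and DMSO-well means, and dose responses were fitted to a two-parameter logistic curve with a non-linear mixed effects model. The single-agent IC50 was obtained from this fit.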

Taselisib = compound: Cc1nc(-c2cn3c(n2)-c2ccc(-c4cnn(C(C)(C)C(N)=O)c4)cc2OCC3)n(C(C)C)n1 [Taselisib]; details: max 10 µM
Method in brief: as §1

Prexasertib = compound: COc1cccc(OCCCN)c1-c1cc(Nc2cnc(C#N)cn2)n[nH]1 [Prexasertib]; details: max 1 µM
Method in brief: as §1

AZD1390 = compound: CC(C)n1c(=O)n(C)c2cnc3cc(F)c(-c4ccc(OCCCN5CCCCC5)nc4)cc3c21 [AZD1390]; details: max 0.3 µM
Method in brief: as §1

Crizotinib = compound: C[C@@H](Oc1cc(-c2cnn(C3CCNCC3)c2)cnc1N)c1c(Cl)ccc(F)c1Cl [Crizotinib]; details: max 10 µM
Method in brief: as §1

Paclitaxel = compound: CC(=O)O[C@H]1C(=O)[C@@]2(C)[C@H]([C@H](OC(=O)c3ccccc3)[C@]3(O)C[C@H](OC(=O)[C@H](O)[C@@H](NC(=O)c4ccccc4)c4ccccc4)C(C)=C1C3(C)C)[C@]1(OC(C)=O)CO[C@@H]1C[C@@H]2O [Paclitaxel]; details: max 3 µM
Method in brief: as §1

Alisertib = compound: COc1cc(Nc2ncc3c(n2)-c2ccc(Cl)cc2C(c2c(F)cccc2OC)=NC3)ccc1C(=O)O [Alisertib]; details: max 10 µM
Method in brief: as §1

Doxorubicin = compound: COc1cccc2c1C(=O)c1c(O)c3c(c(O)c1C2=O)C[C@@](O)(C(=O)CO)C[C@@H]3O[C@H]1C[C@H](N)[C@H](O)[C@H](C)O1 [Doxorubicin]; details: max 1 µM
Method in brief: as §1

Carboplatin = compound: C1CC(C1)(C(=O)[O-])C(=O)[O-].N.N.[Pt+2] [Carboplatin]; details: max 10 µM
Method in brief: as §1

Venetoclax = compound: CC1(C)CCC(CN2CCN(c3ccc(C(=O)NS(=O)(=O)c4ccc(NCC5CCOCC5)c([N+](=O)[O-])c4)c(Oc4cnc5[nH]ccc5c4)c3)CC2)=C(c2ccc(Cl)cc2)C1 [Venetoclax]; details: max 1 µM
Method in brief: as §1

Gemcitabine = compound: Nc1ccn([C@@H]2O[C@H](CO)[C@@H](O)C2(F)F)c(=O)n1 [Gemcitabine]; details: max 0.3 µM
Method in brief: as §1

SN-38 = compound: CCc1c2c(nc3ccc(O)cc13)-c1cc3c(c(=O)n1C2)COC(=O)[C@]3(O)CC [SN-38]; details: max 0.3 µM
Method in brief: as §1

SG3199 = compound: CC1=CN2[C@@H](C1)C=NC3=CC(=C(C=C3C2=O)OC)OCCCCCOC4=C(C=C5C(=C4)N=C[C@@H]6CC(=CN6C5=O)C)OC [SG3199]; details: max 0.001 µM
Method in brief: as §1

Gefitinib = compound: COc1cc2ncnc(Nc3ccc(F)c(Cl)c3)c2cc1OCCCN1CCOCC1 [Gefitinib]; details: max 10 µM
Method in brief: as §1

AZD6738 = compound: C[C@@H]1COCCN1C2=NC(=NC(=C2)C3(CC3)[S@](=N)(=O)C)C4=C5C=CNC5=NC=C4 [AZD6738]; details: max 10 µM
Method in brief: as §1

5-Fluorouracil = compound: O=c1[nH]cc(F)c(=O)[nH]1 [5-Fluorouracil]; details: max 20 µM
Method in brief: as §1

AZD5363 = compound: C1CN(CCC1(C(=O)N[C@@H](CCO)C2=CC=C(C=C2)Cl)N)C3=NC=NC4=C3C=CN4 [AZD5363]; details: max 10 µM
Method in brief: as §1

AZD2811 = compound: CCN(CCO)CCCOc1ccc2c(Nc3cc(CC(=O)Nc4cccc(F)c4)[nH]n3)ncnc2c1 [AZD2811]; details: max 1 µM
Method in brief: as §1

AZD1775 = compound: C=CCn1c(=O)c2cnc(Nc3ccc(N4CCN(C)CC4)cc3)nc2n1-c1cccc(C(C)(C)O)n1 [AZD1775]; details: max 3 µM
Method in brief: as §1

[1] = compound: O=C(Nc1ccc2[nH]nc(-c3ccncc3)c2c1)[C@@H]1CCN(CC(=O)N2CCN(c3ccc(-c4ncccn4)cc3)CC2)C1; details: max 5 µM
Method in brief: as §1

AZD4320 = compound: CN(CC[C@H](CSC1=CC=CC=C1)NC2=C(C=C(C=C2)S(=O)(=O)NC(=O)C3=CC=C(C=C3)N4CCC(CC4)[C@H](C5=CC=CC=C5C6=CC=C(C=C6)Cl)O)S(=O)(=O)C(F)(F)F)CCO [AZD4320]; details: max 1 µM
Method in brief: as §1

AZD5991 = compound: Cc1c2c(nn1C)CSCc1cc(n(C)n1)CSc1cc(c3ccccc3c1)OCCCc1c(C(=O)O)n(C)c3c-2c(Cl)ccc13 [AZD5991]; details: max 1 µM
Method in brief: as §1

SRA737 = compound: N#Cc1cnc(Nc2cc(NC[C@H]3CNCCO3)c(C(F)(F)F)cn2)cn1 [SRA737]; details: max 10 µM
Method in brief: as §1

AZD0156 = compound: CN(C)CCCOc1ccc(-c2ccc3ncc4c(c3c2)n(C2CCOCC2)c(=O)n4C)cn1 [AZD0156]; details: max 3 µM
Method in brief: as §1

Lapatinib = compound: CS(=O)(=O)CCNCc1ccc(-c2ccc3ncnc(Nc4ccc(OCc5cccc(F)c5)c(Cl)c4)c3c2)o1 [Lapatinib]; details: max 10 µM
Method in brief: as §1

Etoposide = compound: COc1cc([C@@H]2c3cc4c(cc3[C@@H](O[C@@H]3O[C@@H]5CO[C@@H](C)O[C@H]5[C@H](O)[C@H]3O)[C@H]3COC(=O)[C@H]23)OCO4)cc(OC)c1O [Etoposide]; details: max 10 µM
Method in brief: as §1

Selumetinib = compound: Cn1cnc2c(F)c(Nc3ccc(Br)cc3Cl)c(C(=O)NOCCO)cc21 [Selumetinib]; details: max 10 µM
Method in brief: as §1

Trametinib = compound: CC(=O)Nc1cccc(-n2c(=O)n(C3CC3)c(=O)c3c(Nc4ccc(I)cc4F)n(C)c(=O)c(C)c32)c1 [Trametinib]; details: max 1 µM
Method in brief: as §1

MK-2206 = compound: NC1(c2ccc(-c3nc4ccn5c(=O)[nH]nc5c4cc3-c3ccccc3)cc2)CCC1 [MK-2206]; details: max 10 µM
Method in brief: as §1

AZD8186 = compound: C[C@@H](Nc1cc(F)cc(F)c1)c1cc(C(=O)N(C)C)cc2c(=O)cc(N3CCOCC3)oc12 [AZD8186]; details: max 10 µM
Method in brief: as §1

Savolitinib = compound: C[C@@H](c1ccc2nccn2c1)n1nnc2ncc(-c3cnn(C)c3)nc21 [Savolitinib]; details: max 1 µM
Method in brief: as §1

AZD5153 = compound: COc1nnc2ccc(N3CCC(c4ccc(OCCN5CCN(C)C(=O)[C@H]5C)cc4)CC3)nn12 [AZD5153]; details: max 1 µM
Method in brief: as §1

Olaparib = compound: O=C(c1cc(Cc2n[nH]c(=O)c3ccccc23)ccc1F)N1CCN(C(=O)C2CC2)CC1 [Olaparib]; details: max 10 µM
Method in brief: as §1

Dasatinib = compound: CC1=C(C(=CC=C1)Cl)NC(=O)C2=CN=C(S2)NC3=CC(=NC(=N3)C)N4CCN(CC4)CCO [Dasatinib]; details: max 2 µM
Method in brief: as §1

AZD7648 = compound: Cc1cc2ncnn2cc1Nc1ncc2c(n1)n(C1CCOCC1)c(=O)n2C [AZD7648]; details: max 10 µM
Method in brief: as §1

| Cell Line | IC50, cell viability 72 h (Palbociclib) | IC50, cell viability 72 h (Taselisib) | IC50, cell viability 72 h (Prexasertib) | IC50, cell viability 72 h (AZD1390) | IC50, cell viability 72 h (Crizotinib) | IC50, cell viability 72 h (Paclitaxel) | IC50, cell viability 72 h (Alisertib) | IC50, cell viability 72 h (Doxorubicin) | IC50, cell viability 72 h (Carboplatin) | IC50, cell viability 72 h (Venetoclax) | IC50, cell viability 72 h (Gemcitabine) | IC50, cell viability 72 h (SN-38) | IC50, cell viability 72 h (SG3199) | IC50, cell viability 72 h (Gefitinib) | IC50, cell viability 72 h (AZD6738) | IC50, cell viability 72 h (5-Fluorouracil) | IC50, cell viability 72 h (AZD5363) | IC50, cell viability 72 h (AZD2811) | IC50, cell viability 72 h (AZD1775) | IC50, cell viability 72 h [1] | IC50, cell viability 72 h (AZD4320) | IC50, cell viability 72 h (AZD5991) | IC50, cell viability 72 h (SRA737) | IC50, cell viability 72 h (AZD0156) | IC50, cell viability 72 h (Lapatinib) | IC50, cell viability 72 h (Etoposide) | IC50, cell viability 72 h (Selumetinib) | IC50, cell viability 72 h (Trametinib) | IC50, cell viability 72 h (MK-2206) | IC50, cell viability 72 h (AZD8186) | IC50, cell viability 72 h (Savolitinib) | IC50, cell viability 72 h (AZD5153) | IC50, cell viability 72 h (Olaparib) | IC50, cell viability 72 h (Dasatinib) | IC50, cell viability 72 h (AZD7648) |
| --- | --- | --- | --- | --- | --- | --- | --- | --- | --- | --- | --- | --- | --- | --- | --- | --- | --- | --- | --- | --- | --- | --- | --- | --- | --- | --- | --- | --- | --- | --- | --- | --- | --- | --- | --- |
| KGN (Other Solid Carcinomas) | 2850 nM | 2320 nM | 117 nM | > 300 nM | 4340 nM | 12.8 nM | 1590 nM | 95 nM | > 10000 nM | > 1000 nM | 6.01 nM | 8.95 nM | > 1 nM | > 10000 nM | 2750 nM | > 20000 nM | > 10000 nM | 451 nM | 490 nM | > 5000 nM | > 1000 nM | > 1000 nM | > 10000 nM | > 3000 nM | > 10000 nM | 2000 nM | > 10000 nM | 999 nM | > 10000 nM | 3860 nM | > 1000 nM | 153 nM | > 10000 nM | 167 nM | > 10000 nM |
| KMRC-1 (Kidney Carcinoma) | > 10000 nM | > 10000 nM | 588 nM | > 300 nM | > 10000 nM | > 3000 nM | > 10000 nM | > 1000 nM | > 10000 nM | > 1000 nM | 133 nM | > 300 nM | > 1 nM | > 10000 nM | > 10000 nM | > 20000 nM | > 10000 nM | > 1000 nM | > 3000 nM | > 5000 nM | > 1000 nM | > 1000 nM | > 10000 nM | > 3000 nM | > 10000 nM | > 10000 nM | > 10000 nM | > 1000 nM | > 10000 nM | 3160 nM | > 1000 nM | > 1000 nM | > 10000 nM | 711 nM | > 10000 nM |
| MDA-MB-453 (Breast Carcinoma) | > 10000 nM | 521 nM | 42.9 nM | > 300 nM | > 10000 nM | 509 nM | > 10000 nM | > 1000 nM | > 10000 nM | > 1000 nM | > 300 nM | 68.2 nM | > 1 nM | > 10000 nM | 3960 nM | > 20000 nM | 8590 nM | > 1000 nM | 1510 nM | > 5000 nM | > 1000 nM | > 1000 nM | > 10000 nM | > 3000 nM | > 10000 nM | > 10000 nM | > 10000 nM | > 1000 nM | 3560 nM | > 10000 nM | > 1000 nM | 349 nM | > 10000 nM | > 2000 nM | > 10000 nM |
| ME-180 (Cervical Carcinoma) | > 10000 nM | 734 nM | > 1000 nM | > 300 nM | > 10000 nM | 141 nM | 9540 nM | > 1000 nM | > 10000 nM | > 1000 nM | 130 nM | 15.8 nM | > 1 nM | > 10000 nM | > 10000 nM | > 20000 nM | 2130 nM | > 1000 nM | 1450 nM | > 5000 nM | > 1000 nM | > 1000 nM | > 10000 nM | > 3000 nM | > 10000 nM | 3730 nM | > 10000 nM | > 1000 nM | > 10000 nM | > 10000 nM | > 1000 nM | > 1000 nM | > 10000 nM | 1240 nM | > 10000 nM |
| ML-2 (Acute Myeloid Leukemia) | 2410 nM | 1530 nM | 4.33 nM | > 300 nM | 1950 nM | 5.85 nM | 660 nM | 70.3 nM | > 10000 nM | 118 nM | 13.6 nM | 4.88 nM | > 1 nM | > 10000 nM | 1780 nM | 1550 nM | 5950 nM | 20.9 nM | 243 nM | 290 nM | 27.5 nM | 62.6 nM | 995 nM | > 3000 nM | > 10000 nM | 342 nM | 381 nM | 20.6 nM | > 10000 nM | > 10000 nM | > 1000 nM | 116 nM | 8050 nM | > 2000 nM | > 10000 nM |
